{"source": "paper PMC10058583", "about": "“Development of Novel Fluorinated Polyphenols as Selective Inhibitors of DYRK1A/B Kinase for Treatment of Neuroinflammatory Diseases including Parkinson’s Disease” (Pharmaceuticals, 2023)", "key": {"[1]": {"tested_on": "LPS-induced inflammation in C57BL/6J mice", "assay": "LPS-induced inflammation model", "type": "in vivo, mouse", "protocol": "Neuroinflammation is an important factor contributing to cognitive impairment and neurodegenerative diseases such as PD, and the administration of LPS is frequently used to study neuroinflammation-associated diseases in mice.\nEach group consisted of six male mice. […] Animals were pretreated for 3 days with the drug of choice; then, treatment with LPS commenced on day 0, and on the 5th day of LPS treatment, the drug was administered half an hour before LPS injection. One hour after LPS treatment, the animals were anesthetized with a mixture of ketamine, xylazine 2%, atropine, and saline (4:2.5:1:2.5). The body temperature of mice under anesthesia was maintained by applying a heating blanket and monitored using a rectal thermometer. After anesthesia, the animals underwent cardiac perfusion with ice-cold saline for three minutes (3 mL/minute via peristaltic pump) via the left ventricle. The right atrium was cut as an outflow route. The right hemisphere was post-fixed overnight in 4% PFA in PBS at 4 °C and stored in 1xPBS containing 0.1% (v/w) sodium azide at 4 °C. The left hemisphere, hippocampus, cortex, midbrain, and brainstem were microdissected, immersed in liquid nitrogen in separate tubes (with one-fifth of the rest of the brain tissue), and stored in microfuge tubes at −80°. TNFα (in both plasma and the hippocampus) was analyzed with ELISA, and the p-tau (AT-8 antibody) level was recorded in the hippocampus and cortex with WB."}, "[2]": {"target": "T1, 6xHis-tagged rat-truncated DYRK1A (residues 1-497) (Rattus norvegicus, UniProt Q63470)", "T1 construct": "6xHis-tagged rat-truncated DYRK1A (residues 1-497); 6xHis; made in house", "assay": "ELISA-based non-radioactive kinase assay, DYRK1A", "type": "biochemical", "conditions": "read-out: DYRK1A IC50"}, "DYRK1A": {"target": "DYRK1A (Rattus norvegicus, UniProt Q63470)", "assay": "ATP competition assay on DYRK1A", "type": "biochemical", "conditions": "ATP up to 0.8 mM"}, "[3]": {"target": "T2, human DYRK1B isoform p65 (GST fusion) (Homo sapiens, UniProt Q9Y463)", "T2 construct": "made in house", "T2 sequence (Q9Y463 1-589 isoform Q9Y463-2)": "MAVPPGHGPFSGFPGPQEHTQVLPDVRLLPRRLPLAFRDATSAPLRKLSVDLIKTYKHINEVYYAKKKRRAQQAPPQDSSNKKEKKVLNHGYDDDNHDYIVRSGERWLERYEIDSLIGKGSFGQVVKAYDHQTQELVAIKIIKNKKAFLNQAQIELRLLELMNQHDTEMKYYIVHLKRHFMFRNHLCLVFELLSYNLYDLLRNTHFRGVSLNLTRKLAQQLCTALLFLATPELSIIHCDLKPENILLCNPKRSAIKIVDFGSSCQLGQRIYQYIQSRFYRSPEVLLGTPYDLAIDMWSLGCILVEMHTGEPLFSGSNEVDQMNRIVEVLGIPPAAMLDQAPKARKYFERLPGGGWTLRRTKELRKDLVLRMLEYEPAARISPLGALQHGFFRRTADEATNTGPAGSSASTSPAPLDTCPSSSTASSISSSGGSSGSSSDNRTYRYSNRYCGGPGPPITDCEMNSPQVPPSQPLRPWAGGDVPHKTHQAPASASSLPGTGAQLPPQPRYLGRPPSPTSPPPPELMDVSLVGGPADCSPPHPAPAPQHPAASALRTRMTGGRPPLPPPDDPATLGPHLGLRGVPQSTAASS", "assay": "ELISA-based non-radioactive kinase assay, DYRK1B", "type": "biochemical", "conditions": "30 ng GST-DYRK1B, 60 min reaction", "protocol": "DYRK1B was prepared from human DYRK1B isoform p65 as glutathione S-transferase fusion protein, and DYRK2 was prepared from human DYRK2 isoform 1 as 6xHis-tagged protein, as previously described.\nFor DYRK2, the reactions were performed exactly as described for DYRK1A. For DYRK1B, the assays were similarly conducted but with 30 ng GST-DYRK1B and a kinase reaction time of 60 min."}, "[4]": {"tested_on": "MPTP-treated C57BL/6J mice", "assay": "MPTP model for Parkinson's disease", "type": "in vivo, mouse", "protocol": "We tested the behavioral effect of 1c in the MPTP model for PD using both IN and PO delivery (both 25 mg/kg, BID). This is a common neurodegenerative disorder model characterized by a progressive loss of dopaminergic (DA) neurons in the […]. Several studies have shown that oxidative stress, neuroinflammation, and microglial activation play a pivotal role, at least in the progression of PD [35].\nMPTP dissolved in saline was administered via intraperitoneal injections once daily at a dosage of 30 mg/kg/day for 5 consecutive days. The control group was administered intraperitoneal injections of saline.\nThe behavioral tests were performed at initiation as the baseline and 3, 6, and 9 days following the last MPTP injection. Pole test: the test consisted of a gauze-taped pole (45 cm high, 1 cm in diameter) with a small cork ball at the top. Mice were placed with their head facing upwards immediately below the ball. Two times were recorded: the time it took for the mouse to turn completely downward (T-turn) and the time it took to descend to the floor (T-total), with a cutoff limit of 60 sec. The test consisted of two trials separated by 10 min intertrial intervals, and the average time was calculated. Mice were pretrained for 3 days before MPTP injection. The rotarod test was used to assess the motor coordination and balance of animals. On the test day, the mice were habituated for 30 min in the test room before testing. The drum was slowly accelerated to a speed of 4–40 rpm for a maximum of 300 s. The latency to fall off the rotarod within this time period was recorded. The test consisted of three trials separated by 10 min intertrial intervals. The mean latency to fall off the rotarod was recorded and used for analysis. Mice were trained for 3 days before MPTP injection.\nTissue Collection and IHC Analysis: within 2 h following the last dose, the blood of animals was collected via cardiac puncture under isoflurane-induced anesthesia. After blood collection, animals were transcardially perfused with normal saline, followed by buffered formalin fixative. Brains were removed, post-fixed, and embedded in paraffin for subsequent IHC analysis of […] (TH)-positive cells in the substantia nigra (SN)."}, "[5]": {"assay": "In vitro and in vivo safety studies (not detailed)"}, "[6]": {"conditions": "PO 30 mg/kg BID, from 3 days before LPS (i.p. 750 µg/kg, 5 days)"}, "[7]": {"conditions": "IN or PO 25 mg/kg BID, no difference between the two routes"}}, "data": [{"compound": "COc1cc(C(=O)O[C@@H]2Cc3c(O)cc(O)cc3O[C@H]2c2cc(O)c(O)c(O)c2)c(F)c(O)c1O", "note": "[Compound 1c]", "values": [{"measurement": "inhibition of tau phosphorylation", "setting": "[1]; IN 30 mg/kg BID, LPS i.p. 750 µg/kg", "value": "lack of efficacy"}, {"measurement": "tau phosphorylation in the hippocampus", "setting": "[1]; PO 30 mg/kg BID, LPS i.p. 750 µg/kg", "value": "reduced tau phosphorylation"}, {"measurement": "TNFα accumulation in plasma", "setting": "[1]; [6]", "value": "significantly (p < 0.05) decreasing"}, {"measurement": "TNFα accumulation in the brain", "setting": "[1]; [6]", "value": "significantly (p < 0.05) decreasing"}, {"measurement": "IC50", "setting": "[2]", "value": 73, "unit": "nM"}, {"measurement": "mode of inhibition with varying ATP", "setting": "DYRK1A", "value": "non-ATP-competitive inhibitor"}, {"measurement": "IC50", "setting": "[3]", "value": 79, "unit": "nM"}, {"measurement": "tyrosine-hydroxylase-positive cells in the substantia nigra pars compacta", "setting": "[4]; IN 25 mg/kg BID", "value": "failed to show any histological difference"}, {"measurement": "movement behavior, pole test", "setting": "[4]; [7]", "value": "completely restored"}, {"measurement": "movement behavior, rotarod test", "setting": "[4]; [7]", "value": "completely restored"}, {"measurement": "tyrosine-hydroxylase-positive cells in the substantia nigra pars compacta", "setting": "[4]; PO 25 mg/kg BID", "value": "protected from MPTP toxicity"}, {"measurement": "in vitro and in vivo safety studies, outcome", "setting": "[5]", "value": "have not reveled any concerns"}]}]}
